Assay results from paper PMC5218480 (PLoS ONE, 2017).

Tested on: MV-4-11 cells
Test: Gene expression microarray analysis (Affymetrix PrimeView) and GSEA
Format: cell-based, human
Design: RFU PODN (11730768_x_at) / Fold change /veh PODN (11730768_x_at) / RFU LINC00158 (11744669_a_at) / Fold change /veh LINC00158 (11744669_a_at) / RFU DUSP10 (11751237_a_at) / Fold change /veh DUSP10 (11751237_a_at) / RFU ID3 (11757404_x_at) / Fold change /veh ID3 (11757404_x_at) / RFU PLEKHG5 (11737974_s_at) / Fold change /veh PLEKHG5 (11737974_s_at) / RFU LRRC4B (11730491_at) / Fold change /veh LRRC4B (11730491_at) / RFU GIMAP4 (11747438_a_at) / Fold change /veh GIMAP4 (11747438_a_at) / RFU KRT8 (11758183_x_at) / Fold change /veh KRT8 (11758183_x_at) / RFU CNN1 (11734310_a_at) / Fold change /veh CNN1 (11734310_a_at) / RFU VPS37D (11726825_at) / Fold change /veh VPS37D (11726825_at) / RFU C10orf10 (11716522_x_at) / Fold change /veh C10orf10 (11716522_x_at) / RFU KIR2DL2 /// KIR2DL4 /// KIR2DL5A /// KIR2DL5B /// KIR2DS1 /// KIR2DS2 /// KIR2DS3 /// KIR2DS4 /// KIR3DL3 /// KIR3DL3 /// KIR3DS1 (11738374_at) / Fold change /veh KIR2DL2 /// KIR2DL4 /// KIR2DL5A /// KIR2DL5B /// KIR2DS1 /// KIR2DS2 /// KIR2DS3 /// KIR2DS4 /// KIR3DL3 /// KIR3DL3 /// KIR3DS1 (11738374_at) / RFU C1QL1 (11718748_at) / Fold change /veh C1QL1 (11718748_at) / RFU TMPRSS4 (11747572_a_at) / Fold change /veh TMPRSS4 (11747572_a_at) / RFU HAMP (11756126_x_at) / Fold change /veh HAMP (11756126_x_at) / RFU RNFT2 (11725882_a_at) / Fold change /veh RNFT2 (11725882_a_at) / RFU NR4A2 (11747474_a_at) / Fold change /veh NR4A2 (11747474_a_at) / RFU ABCC12 (11746883_a_at) / Fold change /veh ABCC12 (11746883_a_at) / RFU TMEM136 (11760407_x_at) / Fold change /veh TMEM136 (11760407_x_at) / RFU CLDN22 /// WWC2 (11732394_at) / Fold change /veh CLDN22 /// WWC2 (11732394_at) / RFU HLA-DPB1 (11760878_x_at) / Fold change /veh HLA-DPB1 (11760878_x_at) / RFU SPINT1 (11716480_a_at) / Fold change /veh SPINT1 (11716480_a_at) / RFU GAP43 (11754022_s_at) / Fold change /veh GAP43 (11754022_s_at) / RFU A4GNT (11735810_at) / Fold change /veh A4GNT (11735810_at) / RFU PRB3 (11715151_x_at) / Fold change /veh PRB3 (11715151_x_at) / RFU TUBB4B (11761932_at) / Fold change /veh TUBB4B (11761932_at) / RFU CAPN14 (11732068_a_at) / Fold change /veh CAPN14 (11732068_a_at) / RFU TMCC2 (11721928_a_at) / Fold change /veh TMCC2 (11721928_a_at) / RFU IRGQ (11745062_a_at) / Fold change /veh IRGQ (11745062_a_at) / RFU FAM174B (11720279_a_at) / Fold change /veh FAM174B (11720279_a_at) / RFU TMPRSS4 (11748680_a_at) / Fold change /veh TMPRSS4 (11748680_a_at) / RFU FAM212B (11763350_a_at) / Fold change /veh FAM212B (11763350_a_at) / RFU PLEKHG5 (11743358_a_at) / Fold change /veh PLEKHG5 (11743358_a_at) / RFU ZSCAN30 (11745921_a_at) / Fold change /veh ZSCAN30 (11745921_a_at) / RFU CMKLR1 (11741424_a_at) / Fold change /veh CMKLR1 (11741424_a_at) / RFU LOC101060620 /// MAPK8IP1 (11723275_at) / Fold change /veh LOC101060620 /// MAPK8IP1 (11723275_at) / RFU SPTSSB (11747773_x_at) / Fold change /veh SPTSSB (11747773_x_at) / RFU PRSS12 (11739890_at) / Fold change /veh PRSS12 (11739890_at) / RFU BIN1 (11741810_x_at) / Fold change /veh BIN1 (11741810_x_at) / RFU WNT11 (11732464_a_at) / Fold change /veh WNT11 (11732464_a_at) / RFU C10orf10 (11716521_a_at) / Fold change /veh C10orf10 (11716521_a_at) / RFU C5orf56 (11738089_at) / Fold change /veh C5orf56 (11738089_at) / RFU CYB561 (11721691_x_at) / Fold change /veh CYB561 (11721691_x_at) / RFU ANKRD19P (11752326_a_at) / Fold change /veh ANKRD19P (11752326_a_at) / RFU OR2T12 /// OR2T33 /// OR2T8 (11738714_s_at) / Fold change /veh OR2T12 /// OR2T33 /// OR2T8 (11738714_s_at) / RFU VCAN (11748164_a_at) / Fold change /veh VCAN (11748164_a_at) / RFU JSRP1 (11732532_at) / Fold change /veh JSRP1 (11732532_at) / RFU KRTAP10-11 (11738290_x_at) / Fold change /veh KRTAP10-11 (11738290_x_at) / RFU MYO3A (11730013_a_at) / Fold change /veh MYO3A (11730013_a_at) / RFU EBF3 (11725865_a_at) / Fold change /veh EBF3 (11725865_a_at) / RFU CAMK2N1 (11719241_x_at) / Fold change /veh CAMK2N1 (11719241_x_at) / RFU C5orf56 (11738088_a_at) / Fold change /veh C5orf56 (11738088_a_at) / RFU OLFML3 (11715873_a_at) / Fold change /veh OLFML3 (11715873_a_at) / RFU LOC100653217 /// NTM (11731650_a_at) / Fold change /veh LOC100653217 /// NTM (11731650_a_at) / RFU MAPK11 (11762145_a_at) / Fold change /veh MAPK11 (11762145_a_at) / RFU FIZ1 (11724087_x_at) / Fold change /veh FIZ1 (11724087_x_at) / RFU OASL (11726364_x_at) / Fold change /veh OASL (11726364_x_at) / RFU SOX15 (11748057_x_at) / Fold change /veh SOX15 (11748057_x_at) / RFU CD79A (11719716_a_at) / Fold change /veh CD79A (11719716_a_at) / RFU HIST1H1D (11736915_at) / Fold change /veh HIST1H1D (11736915_at) / RFU CASKIN2 (11723855_a_at) / Fold change /veh CASKIN2 (11723855_a_at) / RFU LOC730098 (11760151_x_at) / Fold change /veh LOC730098 (11760151_x_at) / RFU OR4N2 (11742367_at) / Fold change /veh OR4N2 (11742367_at) / RFU PRRT2 (11749266_a_at) / Fold change /veh PRRT2 (11749266_a_at) / RFU SNX32 (11753110_a_at) / Fold change /veh SNX32 (11753110_a_at) / RFU CDHR5 (11726645_a_at) / Fold change /veh CDHR5 (11726645_a_at) / RFU RCAN1 (11760418_a_at) / Fold change /veh RCAN1 (11760418_a_at) / RFU FAM167A (11723789_a_at) / Fold change /veh FAM167A (11723789_a_at) / RFU FAM26E (11764081_at) / Fold change /veh FAM26E (11764081_at) / RFU ISYNA1 (11749810_s_at) / Fold change /veh ISYNA1 (11749810_s_at) / RFU ACY1 (11761880_at) / Fold change /veh ACY1 (11761880_at) / RFU 11764098_at / Fold change /veh 11764098_at / RFU SAMD14 (11745864_x_at) / Fold change /veh SAMD14 (11745864_x_at) / RFU NPB (11741838_a_at) / Fold change /veh NPB (11741838_a_at) / RFU TMPRSS6 (11731388_a_at) / Fold change /veh TMPRSS6 (11731388_a_at) / RFU KRTAP10-2 (11738614_at) / Fold change /veh KRTAP10-2 (11738614_at) / RFU ARHGAP8 /// PRR5-ARHGAP8 (11727945_x_at) / Fold change /veh ARHGAP8 /// PRR5-ARHGAP8 (11727945_x_at) / RFU KRTAP5-7 /// NADSYN1 (11734609_at) / Fold change /veh KRTAP5-7 /// NADSYN1 (11734609_at) / RFU RASL12 (11751679_a_at) / Fold change /veh RASL12 (11751679_a_at) / RFU CDKN2B (11736163_a_at) / Fold change /veh CDKN2B (11736163_a_at) / RFU PRF1 (11729649_at) / Fold change /veh PRF1 (11729649_at) / RFU, ZNF638 /// ZNF638-IT1 / Fold change vs veh, ZNF638 /// ZNF638-IT1 / RFU, PANK3 / Fold change vs veh, PANK3 / RFU, SH3YL1 / Fold change vs veh, SH3YL1 / RFU, ZEB2 / Fold change vs veh, ZEB2 / RFU, NRIP1 / Fold change vs veh, NRIP1 / RFU, PTTG1IP / Fold change vs veh, PTTG1IP / RFU, CAPN2 / Fold change vs veh, CAPN2 / RFU, MED14 / Fold change vs veh, MED14 / RFU, SNORA58 / Fold change vs veh, SNORA58 / RFU, C1orf63 / Fold change vs veh, C1orf63 / RFU, LRRFIP1 / Fold change vs veh, LRRFIP1 / RFU, NDUFAF7 / Fold change vs veh, NDUFAF7 / RFU, SLC12A2 / Fold change vs veh, SLC12A2 / RFU, IBTK / Fold change vs veh, IBTK / RFU, ESF1 / Fold change vs veh, ESF1 / Fold change vs veh, TMEM50B / RFU, TAOK1 / Fold change vs veh, TAOK1 / RFU, ACBD3 / Fold change vs veh, ACBD3 / RFU, TMA16 / Fold change vs veh, TMA16 / RFU, RWDD3 / Fold change vs veh, RWDD3 / RFU, BCAT1 / Fold change vs veh, BCAT1 / RFU, EDEM3 / Fold change vs veh, EDEM3 / RFU, TMEM33 / Fold change vs veh, TMEM33 / RFU, WDR75 / Fold change vs veh, WDR75 / RFU, AHCTF1 / Fold change vs veh, AHCTF1 / RFU, TFRC / Fold change vs veh, TFRC / RFU, ZDHHC17 / Fold change vs veh, ZDHHC17 / RFU, NOM1 / Fold change vs veh, NOM1 / RFU, ARL8B / Fold change vs veh, ARL8B / RFU, ZBTB11 / Fold change vs veh, ZBTB11 / RFU, TAMM41 / Fold change vs veh, TAMM41 / RFU, KIAA1704 /// LOC100996395 / Fold change vs veh, KIAA1704 /// LOC100996395 / RFU, ING1 / Fold change vs veh, ING1 / RFU, TRMT61B / Fold change vs veh, TRMT61B / RFU, FUBP3 / Fold change vs veh, FUBP3 / RFU, TP53 / Fold change vs veh, TP53 / RFU, TNKS2 / Fold change vs veh, TNKS2 / RFU, ZFP14 / Fold change vs veh, ZFP14 / RFU, ACTR2 / Fold change vs veh, ACTR2 / RFU, PPP3R1 / Fold change vs veh, PPP3R1 / RFU, PIK3R1 / Fold change vs veh, PIK3R1 / RFU, HNRNPA1 / Fold change vs veh, HNRNPA1 / RFU, RNF170 / Fold change vs veh, RNF170 / RFU, ZNF28 / Fold change vs veh, ZNF28 / RFU, RNGTT / Fold change vs veh, RNGTT / RFU, OGT / Fold change vs veh, OGT / RFU, BRD1 / Fold change vs veh, BRD1 / RFU, MARS / Fold change vs veh, MARS / RFU, ZNF655 / Fold change vs veh, ZNF655 / RFU, FAHD1 / Fold change vs veh, FAHD1 / RFU, BDP1 / Fold change vs veh, BDP1 / RFU, LRRCC1 / Fold change vs veh, LRRCC1 / RFU, ARID1A / Fold change vs veh, ARID1A / RFU, ZNF146 / Fold change vs veh, ZNF146 / RFU, ZNF330 / Fold change vs veh, ZNF330 / RFU, GPN3 / Fold change vs veh, GPN3 / RFU, C9orf123 / Fold change vs veh, C9orf123 / RFU, N4BP2L2 / Fold change vs veh, N4BP2L2 / RFU, ARFIP1 / Fold change vs veh, ARFIP1 / RFU, FAM179B / Fold change vs veh, FAM179B / RFU, BCL10 / Fold change vs veh, BCL10 / RFU, UHRF1BP1L / Fold change vs veh, UHRF1BP1L / RFU, BET1 / Fold change vs veh, BET1 / RFU, CNOT2 / Fold change vs veh, CNOT2 / RFU, ZNF268 / Fold change vs veh, ZNF268 / Fold change vs veh, ZNF507 / RFU, DGCR2 / Fold change vs veh, DGCR2 / RFU, WDSUB1 / Fold change vs veh, WDSUB1 / Fold change vs veh, HSP90B1 /// MIR3652 / RFU, ADSS / Fold change vs veh, ADSS / RFU, GK / Fold change vs veh, GK / RFU, ZNF148 / Fold change vs veh, ZNF148 / RFU, TAF9 / Fold change vs veh, TAF9 / RFU, SLC1A5 / Fold change vs veh, SLC1A5 / RFU, SLMO2 / Fold change vs veh, SLMO2 / RFU, ABCC4 / Fold change vs veh, ABCC4 / RFU, LOC101060439 /// RAP1B / Fold change vs veh, LOC101060439 /// RAP1B / RFU, RFX7 / Fold change vs veh, RFX7 / RFU, GTPBP10 / Fold change vs veh, GTPBP10 / RFU, CNEP1R1 / Fold change vs veh, CNEP1R1 / RFU, BIVM-ERCC5 /// ERCC5 / Fold change vs veh, BIVM-ERCC5 /// ERCC5 / RFU, ILF3 / Fold change vs veh, ILF3 / RFU 11762660_at / Fold change /veh 11762660_at / RFU VCAN (11757783_s_at) / Fold change /veh VCAN (11757783_s_at) / RFU DDX43 (11728927_at) / Fold change /veh DDX43 (11728927_at) / RFU KRT8 (11758188_x_at) / Fold change /veh KRT8 (11758188_x_at) / RFU NKD1 (11759106_at) / Fold change /veh NKD1 (11759106_at) / RFU SRD5A1 (11742802_a_at) / Fold change /veh SRD5A1 (11742802_a_at) / RFU TPSAB1 /// TPSB2 (11721975_s_at) / Fold change /veh TPSAB1 /// TPSB2 (11721975_s_at) / RFU GSTM3 (11746129_a_at) / Fold change /veh GSTM3 (11746129_a_at) / RFU IL23R (11737362_x_at) / Fold change /veh IL23R (11737362_x_at) / RFU TMEM51 (11727254_a_at) / Fold change /veh TMEM51 (11727254_a_at) / RFU PIWIL2 (11732686_x_at) / Fold change /veh PIWIL2 (11732686_x_at) / RFU ORM1 (11744905_x_at) / Fold change /veh ORM1 (11744905_x_at) / RFU CCDC152 (11743942_at) / Fold change /veh CCDC152 (11743942_at) / RFU ECM1 (11717891_a_at) / Fold change /veh ECM1 (11717891_a_at) / RFU IL23R (11748794_a_at) / Fold change /veh IL23R (11748794_a_at) / RFU TNFAIP8L3 (11732012_x_at) / Fold change /veh TNFAIP8L3 (11732012_x_at) / RFU MBOAT4 (11741988_at) / Fold change /veh MBOAT4 (11741988_at) / RFU 11764193_at / Fold change /veh 11764193_at / RFU TMEM53 (11763286_at) / Fold change /veh TMEM53 (11763286_at) / RFU MAGEB2 (11727129_at) / Fold change /veh MAGEB2 (11727129_at) / RFU TMEM200A (11744735_a_at) / Fold change /veh TMEM200A (11744735_a_at) / RFU CCDC152 (11751479_a_at) / Fold change /veh CCDC152 (11751479_a_at) / RFU FAM211A (11726209_a_at) / Fold change /veh FAM211A (11726209_a_at) / RFU RGS16 (11746705_a_at) / Fold change /veh RGS16 (11746705_a_at) / RFU VCAN (11755009_s_at) / Fold change /veh VCAN (11755009_s_at) / RFU RHOB (11743442_s_at) / Fold change /veh RHOB (11743442_s_at) / RFU RGS16 (11720943_a_at) / Fold change /veh RGS16 (11720943_a_at) / RFU RGS16 (11720944_at) / Fold change /veh RGS16 (11720944_at) / RFU, VPS4B / Fold change vs veh, VPS4B / RFU, CREB1 / Fold change vs veh, CREB1 / RFU, DNAJC13 / Fold change vs veh, DNAJC13 / RFU, GNAQ / Fold change vs veh, GNAQ / RFU, CDK5R1 / Fold change vs veh, CDK5R1 / RFU, ZRANB3 / Fold change vs veh, ZRANB3 / RFU, CUL4A / Fold change vs veh, CUL4A / RFU, CCNY / Fold change vs veh, CCNY / RFU, UFL1 / Fold change vs veh, UFL1 / RFU, COG3 / Fold change vs veh, COG3 / RFU, DIAPH2 / Fold change vs veh, DIAPH2 / RFU, SKA2 / Fold change vs veh, SKA2 / RFU, AFF3 / Fold change vs veh, AFF3 / RFU, LMF1 / Fold change vs veh, LMF1 / RFU, IPO11 / Fold change vs veh, IPO11 / RFU, DFFB / Fold change vs veh, DFFB / RFU, FOXP1 / Fold change vs veh, FOXP1 / RFU, CARD8 / Fold change vs veh, CARD8 / RFU, STRN3 / Fold change vs veh, STRN3 / RFU, ADK / Fold change vs veh, ADK / RFU, RASSF2 / Fold change vs veh, RASSF2 / RFU, WIPF1 / Fold change vs veh, WIPF1 / RFU, LARP1B / Fold change vs veh, LARP1B / RFU, RASA1 / Fold change vs veh, RASA1 / RFU, RB1 / Fold change vs veh, RB1 / RFU, PPFIA1 / Fold change vs veh, PPFIA1 / RFU, MAT2A / Fold change vs veh, MAT2A / RFU, CCT5 / Fold change vs veh, CCT5 / RFU, WDR92 / Fold change vs veh, WDR92 / RFU, CUX1 / Fold change vs veh, CUX1 / RFU, TTC7A / Fold change vs veh, TTC7A / RFU, TMEM135 / Fold change vs veh, TMEM135 / RFU, DEPTOR / Fold change vs veh, DEPTOR / RFU, CPM / Fold change vs veh, CPM / RFU, DNAJB6 / Fold change vs veh, DNAJB6 / RFU, CACNA2D3 / Fold change vs veh, CACNA2D3 / RFU, DTX4 / Fold change vs veh, DTX4 / RFU, TFCP2 / Fold change vs veh, TFCP2 / RFU, GMCL1 /// GMCL1P1 / Fold change vs veh, GMCL1 /// GMCL1P1 / RFU, AEBP2 / Fold change vs veh, AEBP2 / RFU, SNHG1 /// SNORD22 /// SNORD25 /// SNORD26 /// SNORD27 /// SNORD28 /// SNORD29 /// SNORD31 / Fold change vs veh, SNHG1 /// SNORD22 /// SNORD25 /// SNORD26 /// SNORD27 /// SNORD28 /// SNORD29 /// SNORD31 / Fold change (Aza/veh), C12orf56 (ProbeSet 11735607_a_at) / Fold change (ACY-1035/veh), C12orf56 (ProbeSet 11735607_a_at) / Fold change (Aza/veh), FGFR1OP (ProbeSet 11751329_s_at) / Fold change (ACY-1035/veh), FGFR1OP (ProbeSet 11751329_s_at) / Fold change (Aza/veh), VPS36 (ProbeSet 11739960_a_at) / Fold change (ACY-1035/veh), VPS36 (ProbeSet 11739960_a_at) / RFU SYPL1 (11715823_x_at) / Fold change /veh SYPL1 (11715823_x_at) / RFU IGFBP7 (11715501_s_at) / Fold change /veh IGFBP7 (11715501_s_at) / RFU REEP3 (11722064_at) / Fold change /veh REEP3 (11722064_at) / RFU IGLL1 (11728026_x_at) / Fold change /veh IGLL1 (11728026_x_at): dose or concentration left out as unconfirmed
Details: MV-4-11 cells, 48 hours

Structure (SMILES): Nc1ccc(-c2cccs2)cc1NC(=O)c1ccc2c(c1)cc(C1CC1)n2CCN1CCOCC1 [ACY-1035]
- RFU HLA-DPB1 (11760878_x_at): 21.61 RFU
